Test results published in patent US11248234B2, “Herbicide-resistant hydroxyphenylpyruvate dioxygenases” (BASF SE, priority 2015, dated 2022).

What was measured:
[1] = tested on: Arabidopsis overexpression line SoHPPD_F363I (short); assay: Germination assay in 48-well plates (tolerance factor); format: in vivo, Arabidopsis thaliana; details: plant growth IC50 transgenic / wildtype; mean of 5 T2 events; non-transgenic set to 1
Experimental: (§1) Tolerance to HPPD-inhibiting herbicides can also be assessed in Arabidopsis. In this case transgenic Arabidopsis thaliana plants are assayed for improved tolerance to HPPD-inhibiting herbicides in 48-well plates (germination assay). Seeds are surface sterilized by stirring for 5 min in ethanol+water (70+30 by volume), rinsing one time with ethanol+water (70+30 by volume) and two times with a sterile, deionized water. The seeds are resuspended in 0.1% agar dissolved in water (w/v). Four to five seeds per well are plated on solid nutrient medium consisting of half-strength Murashige Skoog nutrient solution, pH 5.8 (Murashige and Skoog (1962) Physiologia Plantarum 15: 473-497). Compounds are dissolved in dimethylsulfoxid (DMSO) and added to the medium prior solidification (final DMSO concentration 0.1%). Multi well plates are incubated in a growth chamber at 22° C., 75% relative humidity and 110 μmol Phot*m−2*s−1 with 14:10 h light:dark photoperiod. Growth inhibition is evaluated seven to ten days after seeding in comparison to wild type plants. Tolerance factor is calculated by dividing the plant growth IC50 value of transgenic plants containing a HPPD sequence by that of wildtype plants.

[2] = tested on: Arabidopsis overexpression line SoHPPD (SEQ ID NO: 2); assay: as above; format: in vivo, Arabidopsis thaliana; details: plant growth IC50 transgenic / wildtype; mean of 5 T2 events; non-transgenic set to 1
Experimental: as §1

[3] = tested on: Arabidopsis overexpression line SoHPPD I419V (short); assay: as above; format: in vivo, Arabidopsis thaliana; details: plant growth IC50 transgenic / wildtype; mean of 5 T2 events; non-transgenic set to 1
Experimental: as §1

[4] = tested on: Arabidopsis overexpression line SoHPPD Q317H (short); assay: as above; format: in vivo, Arabidopsis thaliana; details: plant growth IC50 transgenic / wildtype; mean of 5 T2 events; non-transgenic set to 1
Experimental: as §1

[5] = tested on: transgenic T1 Arabidopsis plants, Scenedesmus HPPD phenylalanine 363 exchanged by isoleucine; assay: T1 spray application; format: in vivo, Arabidopsis thaliana; details: FIG. 3; highest application rate
Experimental: (§2) Wildtype plants were sprayed in parallel at each application rate (two lower pots below dashed line) whereas T1 plants are represented by the five upper pots. Pictures were taken 8 days after treatment.
(§3) Transgenic T1 Arabidopsis plants were sprayed with the indicated amount of HPPD inhibiting herbicide. The T1 spray application is a fast method to evaluate the potential of transgenic traits even though a segregating population and only one event of respective traits is tested.

[6] = tested on: transgenic T1 Arabidopsis plants, Scenedesmus HPPD alanine 318 exchanged by glycine and leucine 350 substituted with methionine; assay: T1 spray application; format: in vivo, Arabidopsis thaliana; details: FIG. 3; pictures 8 days after treatment
Experimental: as §2, §3

[7] = tested on: WT (non-transgenic control) Arabidopsis plants; assay: Greenhouse spray test, injury evaluation; format: in vivo, Arabidopsis thaliana; details: 14 DAT
Experimental: (§4) Non-transgenic control plants were treated in parallel and pictures taken 14 days after treatment.
(§5) For post emergence treatment, the test plants are first grown to a height of 3 to 15 cm, depending on the plant habit, and only then treated with the herbicides. For this purpose, the test plants are either sown directly and grown in the same containers, or they are first grown separately and transplanted into the test containers a few days prior to treatment.
(§6) Additionally, T1 and T2 transgenic Arabidopsis plants can be tested for improved tolerance to HPPD-inhibiting herbicides in greenhouse studies. Herbicide injury scoring is done 2-3 weeks after treatment and is rated on a scale of 0 to 100%, 0% being no injury and 100% being complete death.
(§7) Transgenic T2 Arabidopsis plants were sprayed with a range of doses from 1.56-25 g/ha of different HPPD-inhibiting herbicides and injury evaluations were taken two weeks after treatment (FIG. 4). As depicted in Table 8, control plants were severely injured by all doses of herbicides applied, with at least 58% of leaf material being damaged at the lowest application rate and 100% leaf damage at the second application rate.

[8] = tested on: transgenic Arabidopsis plants (T2) SoHPPD I419V (short); assay: Greenhouse spray test, injury evaluation; format: in vivo, Arabidopsis thaliana; details: for Injury: 14 DAT
Experimental: as §4, §5, §6, §7

[9] = tested on: Scenedesmus HPPD with glutamine 317 exchanged to methionine, alanine 318 substituted by glycine and glutamate 345 mutated to glutamin; assay: In vitro HPPD activity assay; format: biochemical, Scenedesmus obliquus; details: in words, from Table 6 data
Experimental: HPPD produces homogentisic acid and CO2 from 4-hydroxyphenylpyruvate (4-HPP) and O2. The activity assay for HPPD is based on the analysis of homogentisic acid by reversed phase HPLC.
The assay mixture can contain 150 mM potassium phosphate buffer pH 7.0, 50 mM L-ascorbic acid, 100 μM Catalase (Sigma-Aldrich), 1 μM FeSO4 and 0.2 units of purified mutated HPPD enzyme in a total volume of 505 μl. 1 unit is defined as the amount of enzyme that is required to produce 1 nmol of HGA per minute at 20° C.
After a preincubation of 30 min the reaction is started by adding 4-HPP to a final concentration of 0.05 mM. The reaction is allowed to proceed for 45 min at room temperature. The reaction is stopped by the addition of 50 μl of 4.5 M phosphoric acid. The sample is filtered using a […] pore size PVDF filtration device.
5 μl of the cleared sample is analyzed on an UPLC HSS T3 column (particle size 1.8 μm, dimensions 2.1×50 mm; Waters) by isocratic elution using 90% 20 mM NaH2PO4 pH 2.2, 10% methanol (v/v).
HGA is detected electrochemically at 750 mV (mode: DC; polarity: positive) and quantified by integrating peak areas (Empower software; Waters).
Inhibitors are dissolved in DMSO (dimethylsulfoxide) to a concentration of 0.5 mM. From this stock solution serial five-fold dilutions are prepared in DMSO, which are used in the assay. […] IC50 values are calculated using non-linear regression. […]

Molecule `Cc1c(C(=O)c2cnn(C)c2O)ccc(S(C)(=O)=O)c1C1=NOCC1` [Inhibitor 1, [3-(4,5-dihydroisoxazol-3-yl)-2-methyl-4-methylsulfonyl-phenyl]-(5-hydroxy-1-methyl-pyrazol-4-yl)methanone] has a Tolerance factor [1] of 1000, a Tolerance factor [2] of 92 and a Tolerance factor [3] of 100. The Tolerance factor [4] was 100, the “tolerance of T1 plants to spray” value [5] was “highly tolerant” and the “tolerance of T1 plants to spray” value [6] was “good tolerance”. For the same molecule, the Injury ([7]; 1.56 g ai/ha) was 75%, the Injury ([7]; 6.25 g ai/ha) was 100% and the Injury ([7]; 25 g ai/ha) was 100%. For the same molecule, the Injury ([8]; Event G, 1.56 g ai/ha) was 5%, the Injury ([8]; Event G, 6.25 g ai/ha) was 8% and the Injury ([8]; Event G, 25 g ai/ha) was 13%. The Injury ([8]; Event H, 1.56 g ai/ha) was 0%, the Injury ([8]; Event H, 6.25 g ai/ha) was 0% and the Injury ([8]; Event H, 25 g ai/ha) was 13%.
Molecule `CS(=O)(=O)c1ccc(C(=O)C2C(=O)CCCC2=O)c([N+](=O)[O-])c1` [Inhibitor 2, 2-(4-methylsulfonyl-2-nitro-benzoyl)cyclohexane-1,3-dione] has an Injury ([7]; 1.56 g ai/ha) of 58%, an Injury ([7]; 6.25 g ai/ha) of 100% and an Injury ([7]; 25 g ai/ha) of 100%. For the same molecule, the average injury rate ([8]; 25 g ai/ha, average of events) was 75%, the Injury ([8]; Event G, 1.56 g ai/ha) was 0% and the Injury ([8]; Event G, 6.25 g ai/ha) was 0%. For the same molecule, the Injury ([8]; Event G, 25 g ai/ha) was 95%, the Injury ([8]; Event H, 1.56 g ai/ha) was 5% and the Injury ([8]; Event H, 6.25 g ai/ha) was 8%. The Injury ([8]; Event H, 25 g ai/ha) was 58%.
In the case of `CCS(=O)(=O)c1cc(C(F)(F)F)ccc1C1=C(O)c2ncccc2C(C)(C)S1(=O)=O` [Inhibitor 4, 7-[2-ethylsulfonyl-4-(trifluoromethyl)phenyl]-5,5-dimethyl-6,6-dioxo-thiopyrano[4,3-b]pyridin-8-ol], the “resistance of the enzyme to the inhibitor” value [9] is reported as “conferred resistance”.
